In ChEMBL document CHEMBL3885881, “DrugMatrix”:

Organism: Rattus norvegicus
Assay: DrugMatrix - Regimen: Daily Repeat
Assay type: toxicity, organism-based, Sprague-Dawley
Set-up: regimen Daily Repeat, gender Male, age 6-8 weeks
Conditions: in vivo, po, route oral GAVAGE, […]; for ABSOLUTE BASOPHIL / ABSOLUTE EOSINOPHIL / ABSOLUTE LYMPHOCYTE / ABSOLUTE MONOCYTE / ABSOLUTE SEGMENTED NEUTROPHIL / BASOPHIL / EOSINOPHIL / ERYTHROCYTE COUNT / HEMATOCRIT / HEMOGLOBIN / LEUKOCYTE COUNT / LYMPHOCYTE / MEAN CORPUSCULAR HEMOGLOBIN / MEAN CORPUSCULAR HEMOGLOBIN CONCENTRATION / MEAN CORPUSCULAR VOLUME / MONOCYTE / NEUTROPHIL / NUCLEATED RED BLOOD CELLS / PLATELET COUNT: tissue Blood; for ALANINE AMINOTRANSFERASE / ALBUMIN / ALKALINE PHOSPHATASE / ASPARTATE AMINOTRANSFERASE / BLOOD UREA NITROGEN / CARBON DIOXIDE / CHLORIDE / CHOLESTEROL / CREATINE PHOSPHOKINASE / CREATININE / GLUCOSE / LACTATE DEHYDROGENASE / LIPASE / PHOSPHORUS / POTASSIUM / SODIUM / TOTAL BILIRUBIN / TOTAL PROTEIN / URIC ACID: tissue Plasma
[1] = 10 mg/kg, 72 h, dose level Low, time 3 day
[2] = 10 mg/kg, 120 h, dose level Low, time 5 day
[3] = 1200 mg/kg, 72 h, dose level High, time 3 day
[4] = 1200 mg/kg, 120 h, dose level High, time 5 day

`COC(=O)Nc1nc2cc(C(=O)c3ccc(F)cc3)ccc2[nH]1` [FLUBENDAZOLE] was tested, and the “ABSOLUTE BASOPHIL” value [1] was 0 CELLS/uL, the “ABSOLUTE EOSINOPHIL” value [1] was 47.67 CELLS/uL and the “ABSOLUTE LYMPHOCYTE” value [1] was 13609.33 CELLS/uL. The “ABSOLUTE MONOCYTE” value [1] was 47.67 CELLS/uL, the “ABSOLUTE SEGMENTED NEUTROPHIL” value [1] was 1162 CELLS/uL and the BASOPHIL [1] was 0%. For the same compound, the EOSINOPHIL [1] was 0.33%, the “ERYTHROCYTE COUNT” value [1] was 5.56 x10E6/uL and the HEMATOCRIT [1] was 35.83%. For the same compound, the HEMOGLOBIN [1] was 14.1 G/DL, the “LEUKOCYTE COUNT” value [1] was 14.87 x10E3/uL and the LYMPHOCYTE [1] was 91.33%. For the same compound, the “MEAN CORPUSCULAR HEMOGLOBIN” value [1] was 25.37 pg, the “MEAN CORPUSCULAR HEMOGLOBIN CONCENTRATION” value [1] was 39.33 G/DL and the “MEAN CORPUSCULAR VOLUME” value [1] was 64.4 fL. For the same compound, the MONOCYTE [1] was 0.33%, the NEUTROPHIL [1] was 8% and the “NUCLEATED RED BLOOD CELLS” value [1] was 0 /100WBC. For the same compound, the “PLATELET COUNT” value [1] was 1248.33 x10E3/uL, the “ALANINE AMINOTRANSFERASE” value [1] was 66.33 u/L and the ALBUMIN [1] was 4.3 G/DL. For the same compound, the “ALKALINE PHOSPHATASE” value [1] was 384.67 u/L, the “ASPARTATE AMINOTRANSFERASE” value [1] was 89 u/L and the “BLOOD UREA NITROGEN” value [1] was 14.67 mg/dL. The “CARBON DIOXIDE” value [1] was 28.67 mmol/L, the CHLORIDE [1] was 103.67 MEQ/L and the CHOLESTEROL [1] was 73 mg/dL. The “CREATINE PHOSPHOKINASE” value [1] was 180.67 u/L, the CREATININE [1] was 0.2 mg/dL and the GLUCOSE [1] was 149.33 mg/dL. The “LACTATE DEHYDROGENASE” value [1] was 206 u/L, the LIPASE [1] was 10.67 u/L and the PHOSPHORUS [1] was 13.07 mg/dL. For the same compound, the POTASSIUM [1] was 6.75 MEQ/L, the SODIUM [1] was 148 MEQ/L and the “TOTAL BILIRUBIN” value [1] was 0.17 mg/dL. For the same compound, the “TOTAL PROTEIN” value [1] was 5.6 G/DL, the “URIC ACID” value [1] was 2.37 mg/dL and the “ABSOLUTE BASOPHIL” value [2] was 0 CELLS/uL. The “ABSOLUTE EOSINOPHIL” value [2] was 0 CELLS/uL, the “ABSOLUTE LYMPHOCYTE” value [2] was 11922.67 CELLS/uL and the “ABSOLUTE MONOCYTE” value [2] was 87 CELLS/uL. For the same compound, the “ABSOLUTE SEGMENTED NEUTROPHIL” value [2] was 723.67 CELLS/uL, the BASOPHIL [2] was 0% and the EOSINOPHIL [2] was 0%. The “ERYTHROCYTE COUNT” value [2] was 5.65 x10E6/uL, the HEMATOCRIT [2] was 34.27% and the HEMOGLOBIN [2] was 13.7 G/DL. The “LEUKOCYTE COUNT” value [2] was 12.73 x10E3/uL, the LYMPHOCYTE [2] was 93.67% and the “MEAN CORPUSCULAR HEMOGLOBIN” value [2] was 24.3 pg. For the same compound, the “MEAN CORPUSCULAR HEMOGLOBIN CONCENTRATION” value [2] was 40.03 G/DL, the “MEAN CORPUSCULAR VOLUME” value [2] was 60.63 fL and the MONOCYTE [2] was 0.67%. For the same compound, the NEUTROPHIL [2] was 5.67%, the “NUCLEATED RED BLOOD CELLS” value [2] was 0.33 /100WBC and the “PLATELET COUNT” value [2] was 1117 x10E3/uL. For the same compound, the “ALANINE AMINOTRANSFERASE” value [2] was 57.33 u/L, the ALBUMIN [2] was 4.23 G/DL and the “ALKALINE PHOSPHATASE” value [2] was 373.33 u/L. The “ASPARTATE AMINOTRANSFERASE” value [2] was 85.33 u/L, the “BLOOD UREA NITROGEN” value [2] was 15.67 mg/dL and the “CARBON DIOXIDE” value [2] was 23.33 mmol/L. For the same compound, the CHLORIDE [2] was 105 MEQ/L, the CHOLESTEROL [2] was 58.67 mg/dL and the “CREATINE PHOSPHOKINASE” value [2] was 240.33 u/L. The CREATININE [2] was 0.22 mg/dL, the GLUCOSE [2] was 160.33 mg/dL and the “LACTATE DEHYDROGENASE” value [2] was 156.67 u/L. The LIPASE [2] was 9.33 u/L, the PHOSPHORUS [2] was 12.1 mg/dL and the POTASSIUM [2] was 7.18 MEQ/L. The SODIUM [2] was 146.47 MEQ/L, the “TOTAL BILIRUBIN” value [2] was 0.2 mg/dL and the “TOTAL PROTEIN” value [2] was 5.97 G/DL. The “URIC ACID” value [2] was 1.9 mg/dL, the “ABSOLUTE BASOPHIL” value [3] was 0 CELLS/uL and the “ABSOLUTE EOSINOPHIL” value [3] was 0 CELLS/uL. For the same compound, the “ABSOLUTE LYMPHOCYTE” value [3] was 12475.33 CELLS/uL, the “ABSOLUTE MONOCYTE” value [3] was 43.67 CELLS/uL and the “ABSOLUTE SEGMENTED NEUTROPHIL” value [3] was 1014.33 CELLS/uL. For the same compound, the BASOPHIL [3] was 0%, the EOSINOPHIL [3] was 0% and the “ERYTHROCYTE COUNT” value [3] was 5.28 x10E6/uL. The HEMATOCRIT [3] was 33.83%, the HEMOGLOBIN [3] was 13.6 G/DL and the “LEUKOCYTE COUNT” value [3] was 13.53 x10E3/uL. The LYMPHOCYTE [3] was 92%, the “MEAN CORPUSCULAR HEMOGLOBIN” value [3] was 25.87 pg and the “MEAN CORPUSCULAR HEMOGLOBIN CONCENTRATION” value [3] was 40.23 G/DL. For the same compound, the “MEAN CORPUSCULAR VOLUME” value [3] was 64.27 fL, the MONOCYTE [3] was 0.33% and the NEUTROPHIL [3] was 7.67%. For the same compound, the “NUCLEATED RED BLOOD CELLS” value [3] was 0.33 /100WBC, the “PLATELET COUNT” value [3] was 1168 x10E3/uL and the “ALANINE AMINOTRANSFERASE” value [3] was 71.67 u/L. The ALBUMIN [3] was 4.33 G/DL, the “ALKALINE PHOSPHATASE” value [3] was 451.33 u/L and the “ASPARTATE AMINOTRANSFERASE” value [3] was 104.67 u/L. The “BLOOD UREA NITROGEN” value [3] was 12 mg/dL, the “CARBON DIOXIDE” value [3] was 29.33 mmol/L and the CHLORIDE [3] was 100.67 MEQ/L. For the same compound, the CHOLESTEROL [3] was 60.33 mg/dL, the “CREATINE PHOSPHOKINASE” value [3] was 400 u/L and the CREATININE [3] was 0.19 mg/dL. The GLUCOSE [3] was 163.67 mg/dL, the “LACTATE DEHYDROGENASE” value [3] was 208.67 u/L and the LIPASE [3] was 9.67 u/L. For the same compound, the PHOSPHORUS [3] was 12.3 mg/dL, the POTASSIUM [3] was 6.63 MEQ/L and the SODIUM [3] was 146.5 MEQ/L. The “TOTAL BILIRUBIN” value [3] was 0.17 mg/dL, the “TOTAL PROTEIN” value [3] was 5.7 G/DL and the “URIC ACID” value [3] was 1.9 mg/dL. For the same compound, the “ABSOLUTE BASOPHIL” value [4] was 0 CELLS/uL, the “ABSOLUTE EOSINOPHIL” value [4] was 0 CELLS/uL and the “ABSOLUTE LYMPHOCYTE” value [4] was 14800.33 CELLS/uL. For the same compound, the “ABSOLUTE MONOCYTE” value [4] was 0 CELLS/uL, the “ABSOLUTE SEGMENTED NEUTROPHIL” value [4] was 966.33 CELLS/uL and the BASOPHIL [4] was 0%. For the same compound, the EOSINOPHIL [4] was 0%, the “ERYTHROCYTE COUNT” value [4] was 5.99 x10E6/uL and the HEMATOCRIT [4] was 36.1%. The HEMOGLOBIN [4] was 14.47 G/DL, the “LEUKOCYTE COUNT” value [4] was 15.77 x10E3/uL and the LYMPHOCYTE [4] was 93.67%. The “MEAN CORPUSCULAR HEMOGLOBIN” value [4] was 24.2 pg, the “MEAN CORPUSCULAR HEMOGLOBIN CONCENTRATION” value [4] was 40.07 G/DL and the “MEAN CORPUSCULAR VOLUME” value [4] was 60.33 fL. For the same compound, the MONOCYTE [4] was 0%, the NEUTROPHIL [4] was 6.33% and the “NUCLEATED RED BLOOD CELLS” value [4] was 0 /100WBC. The “PLATELET COUNT” value [4] was 1290.67 x10E3/uL, the “ALANINE AMINOTRANSFERASE” value [4] was 58.33 u/L and the ALBUMIN [4] was 4.4 G/DL. For the same compound, the “ALKALINE PHOSPHATASE” value [4] was 432 u/L, the “ASPARTATE AMINOTRANSFERASE” value [4] was 93.33 u/L and the “BLOOD UREA NITROGEN” value [4] was 12.33 mg/dL. The “CARBON DIOXIDE” value [4] was 21.67 mmol/L, the CHLORIDE [4] was 103.33 MEQ/L and the CHOLESTEROL [4] was 77.67 mg/dL. The “CREATINE PHOSPHOKINASE” value [4] was 239.67 u/L, the CREATININE [4] was 0.28 mg/dL and the GLUCOSE [4] was 161 mg/dL. The “LACTATE DEHYDROGENASE” value [4] was 157.67 u/L, the LIPASE [4] was 10 u/L and the PHOSPHORUS [4] was 11.27 mg/dL. The POTASSIUM [4] was 6.7 MEQ/L, the SODIUM [4] was 144.17 MEQ/L and the “TOTAL BILIRUBIN” value [4] was 0.13 mg/dL. The “TOTAL PROTEIN” value [4] was 6.23 G/DL and the “URIC ACID” value [4] was 1.93 mg/dL.
